Assay results reported in article PMC6749521, “The Effect of Flavonoid Aglycones on the CYP1A2, CYP2A6, CYP2C8 and CYP2D6 Enzymes Activity” (Molecules, 2019).
Like-named read-outs stand apart in the source and are kept apart here. Blank lines part the entries; values can stand above or below the compound they belong to.

Assays:
CYP3A4 = test system: CYP3A4; parameters: method as in PMID 30301254; settings: statistical significance p < 0.1; cited from earlier work
CYP2A6 [1] = settings: ref 31 (Boonruanga et al.), cited from earlier work
CYP2A6 [2] = target: T1, CYP2A6 (Homo sapiens, UniProt P11509); assay: CYP2A6 enzyme activity, coumarin 7-hydroxylation (MDI, TDI, DI assays), recombinant baculosomes; settings: for Inhibition of CYP2A6 enzyme activity / activity at 30 min, 1 µM: 1 µM flavonoid; for activity at 30 min, 1 µM: human, pH 7.4, probe coumarin (7-hydroxylation), 10 µM, Residual CYP2A6 enzyme activity
T1 sequence (P11509 1-494): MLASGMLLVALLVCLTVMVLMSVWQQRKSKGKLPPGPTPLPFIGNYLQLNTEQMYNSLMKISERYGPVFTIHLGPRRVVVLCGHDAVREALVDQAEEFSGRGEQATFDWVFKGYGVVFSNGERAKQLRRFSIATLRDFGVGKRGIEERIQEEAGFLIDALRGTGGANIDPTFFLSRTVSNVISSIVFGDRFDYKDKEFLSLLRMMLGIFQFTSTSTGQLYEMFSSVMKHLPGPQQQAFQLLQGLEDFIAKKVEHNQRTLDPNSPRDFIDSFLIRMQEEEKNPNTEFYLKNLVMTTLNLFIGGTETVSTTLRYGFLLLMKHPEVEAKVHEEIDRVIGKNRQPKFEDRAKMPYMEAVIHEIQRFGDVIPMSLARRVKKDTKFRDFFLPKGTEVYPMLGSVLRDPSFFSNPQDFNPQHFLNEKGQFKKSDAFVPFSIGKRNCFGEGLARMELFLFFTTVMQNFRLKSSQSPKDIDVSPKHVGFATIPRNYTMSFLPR
Description: (§1) The recombinant baculosomes with hyperexpressed cytochromes P450 (1A2, 2A6, 2C8, and 2D6) and coexpressed NADPH cytochrome P450 reductase and cytochrome b5 were used as a source of enzyme. Baculosomes were commercially obtained from Thermo Fisher Scientific (Waltham, MA, USA), and all other chemicals from Sigma-Aldrich if not otherwise indicated. A 1.0 M solution phosphate buffer of pH 7.4 was prepared in house. NADPH generating system was prepared of 0.1 M glucose-6-phosphate, 10 mg mL^−1 NADP^+, and 1000 IU mL^−1 glucose-6-phosphate dehydrogenase in ratio 100:50:2 (v/v/v).
The aromatic hydroxylation of coumarin at the position 7 was used as a marker reaction for CYP2A6. The incubation conditions were the same as for CYP1A2 enzyme (vide supra) unless otherwise stated. The final concentration of coumarin was 10 µM, while the incubation time was extended to 30 min.
HPLC-DAD analysis was conducted on the same system as the CYP1A2 enzyme with the following modifications: The gradient timetable (t/min, %B) was (0, 20), (1.5, 20), (10, 70), (11, 20), (17, 20), and the detection wavelength was 330 nm. The retention time of the substrate (coumarin) was 7.5 min, while the product (7-hydroxycoumarin) was detected at 4.8 min. The amount of generated product was determined as the area under the curve based on the calibration curve of the standard.
(§2) Three types of experiments were conducted to determine metabolism dependent inhibition, time dependent inhibition, and direct inhibition of CYP1A2, CYP2A6, CYP2C8, and CYP2D6 enzymes.
(§3) To determine metabolism dependent inhibition (MDI assay), the flavonoid was first preincubated with the enzyme with the addition of the generating system for 30 min, after which the marker substrate was added to determine residual enzyme activity (as described above for each enzyme).
(§4) If metabolism dependent inhibition was determined, time dependent inhibition and direct inhibition were tested. Time dependent inhibition (TDI assay) was assessed by preincubating the flavonoid and enzyme, without the generating system, after which residual activity was determined by adding the NADPH generating system along with the substrate (as described above for each enzyme).
(§5) The direct inhibition assay (DI assay) was conducted without preincubation, i.e., the NADPH generating system was added to the incubation mixture containing flavonoid and substrate following the experimental set-up described above for each individual cytochrome P450 enzyme.
(§6) Pure time dependent inhibitors require time to interact with the enzyme. Thus, TDI inhibitors will show a reduction of enzyme activity in assays with preincubations, i.e., the MDI and TDI assays, but not in the DI assay (no preincubation). […] DI inhibitors will reduce enzyme activity in all three assays (MDI, TDI, and DI).
(§7) All incubations were conducted in triplicate. The results are expressed as the residual activity of the enzyme, i.e., the percentage of product generated in incubation with the addition of flavonoid in ratio to the control without flavonoid. The statistical significance was tested with Student’s t-test in the program R (The R Project for Statistical Computing, Vienna, Austria).

CYP2C8 = target: T2, CYP2C8 (Homo sapiens, UniProt P10632); assay: CYP2C8 enzyme activity, paclitaxel 6α-hydroxylation (MDI, TDI, DI assays), recombinant baculosomes; assay type: biochemical; settings: for Inhibition of CYP2C8 paclitaxel 6-α-hydroxylation / CYP2C8 enzyme activity in the TDI assay: 1 µM flavonoid; for Type of CYP2C8 inhibition: concluded from MDI, TDI, DI assays at 1 µM
T2 construct: purchased Thermo Fisher Scientific; host or cells: baculosomes
T2 sequence (P10632 1-490): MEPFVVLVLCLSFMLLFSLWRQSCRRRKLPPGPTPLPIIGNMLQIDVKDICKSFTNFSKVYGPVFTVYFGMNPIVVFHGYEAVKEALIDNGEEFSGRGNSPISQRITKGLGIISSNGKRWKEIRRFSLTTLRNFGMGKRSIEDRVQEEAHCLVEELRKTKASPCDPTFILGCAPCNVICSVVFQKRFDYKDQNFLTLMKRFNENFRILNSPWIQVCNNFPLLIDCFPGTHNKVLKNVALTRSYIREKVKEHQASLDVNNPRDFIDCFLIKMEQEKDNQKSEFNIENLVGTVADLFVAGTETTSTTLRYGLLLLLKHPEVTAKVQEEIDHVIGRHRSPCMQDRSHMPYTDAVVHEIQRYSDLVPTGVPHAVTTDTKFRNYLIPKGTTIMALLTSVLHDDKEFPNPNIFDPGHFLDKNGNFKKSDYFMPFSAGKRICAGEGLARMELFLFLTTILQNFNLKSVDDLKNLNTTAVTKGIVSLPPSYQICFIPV
Description: as §1
Paclitaxel 6α-hydroxylation was used as a marker reaction for monitoring CYP2C8 enzyme activity (Figure 2). The incubation conditions were the same as for CYP1A2 enzyme (vide supra) unless otherwose stated. The final concentration of paclitaxel was 20 µM, while the incubation time was set to 30 min.
HPLC-DAD analysis was conducted on the same system as the CYP1A2 enzyme with the following modifications: The gradient timetable (t/min, %B) was (0, 50), (2, 50), (10, 90), (11, 50), (17, 50), and the detection wavelength was 227 nm. […] The amount of generated product was determined as the area under the curve based on the calibration curve of the standard.
as §2, §3, §4, §5, §6, §7

CYP1A2 [3] = test system: CYP1A2; parameters: method as in ref 25 (Kim et al.); settings: recombinant cytochrome P450 system; ref 25 (Kim et al.); cited from earlier work
rat liver microsomes = test system: rat liver microsomes; parameters: method as in ref 24 (Siess et al.); settings: ref 24 (Siess et al.), cited from earlier work
CYP1A2 [4] = target: T3, CYP1A2 (Homo sapiens, UniProt P05177); assay: CYP1A2 enzyme activity, phenacetin O-deethylation (MDI, TDI, DI assays), recombinant baculosomes; settings: for activity at 15 min, 1 µM: human, pH 7.4, probe phenacetin (O-deethylation), 150 µM
T3 sequence (P05177 1-516): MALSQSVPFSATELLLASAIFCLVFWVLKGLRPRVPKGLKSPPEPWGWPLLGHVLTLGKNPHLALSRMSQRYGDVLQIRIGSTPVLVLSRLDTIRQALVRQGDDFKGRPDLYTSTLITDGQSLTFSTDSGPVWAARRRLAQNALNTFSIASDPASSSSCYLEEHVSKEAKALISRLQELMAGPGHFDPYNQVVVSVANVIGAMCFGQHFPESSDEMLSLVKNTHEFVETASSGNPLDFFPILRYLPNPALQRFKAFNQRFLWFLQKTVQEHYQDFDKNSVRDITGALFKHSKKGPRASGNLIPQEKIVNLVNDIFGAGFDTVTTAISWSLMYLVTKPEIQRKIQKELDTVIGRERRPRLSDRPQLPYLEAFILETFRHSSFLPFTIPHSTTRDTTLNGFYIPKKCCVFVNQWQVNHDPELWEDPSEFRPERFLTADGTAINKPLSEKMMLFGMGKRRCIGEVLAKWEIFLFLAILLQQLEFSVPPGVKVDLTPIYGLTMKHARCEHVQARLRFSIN
Description: as §1
Phenacetine O-deethylation was used as a marker reaction for monitoring CYP1A2 enzyme activity (Figure 2). Incubations of 100 µL were conducted at the temperature of 37 °C. The pH of the incubation mixture was set at 7.4 using a potassium phosphate buffer (final concentration 50 mM). The total amount of CYP1A2 enzyme was 5 pmol, and the final concentration of substrate was 150 µM. Residual activity was determined by incubating the flavonoid (1 µM) with phenacetine as a substrate for 15 min, with or without preincubation, depending of the type of inhibition assay. Reactions were started by the addition of 15 µL of NADPH generating system, while the reactions were stopped by the addition of 1 mL 1% formic acid in acetonitrile. After centrifugation (10 min, 1900× g), the clear solution was transferred to a vial for HPLC analysis.
HPLC analysis was performed on Agilent 1100 instrument (Santa Clara, CA, USA) coupled with a diode array detector (DAD) on Luna C18 column (4.6 × 150 mm, 3 μm). The gradient method was used for separation. Mobile phase A consisted of water, acetonitrile, and glacial acetic acid in the volume ratio of 90:10:0.1, while mobile phase B contained the same solvents in the ratio 10:90:0.1. The following gradient timetable was used (t/min, %B): (0, 0), (2, 0), (13, 55), (14, 0), (20, 0). The flow rate was 1 mL/min, and chromatograms were recorded at 254 nm. Volume of incubation injected to the column was 15 µL. […] The amount of generated product (acetaminophen) was determined as the area under the curve based on the calibration curve of the standard.
as §2, §3, §4, §5, §6
All incubations were conducted in triplicate. The results are expressed as the residual activity of the enzyme, i.e., the percentage of product generated in incubation with the addition of flavonoid in ratio to the control without flavonoid.

CYP1A2 [5] = test system: CYP1A2; parameters: method as in ref 23 (Lee et al.); settings: ref 23 (Lee et al.); cited from earlier work
[6] = concluded from MDI, TDI, DI assays at 1 µM

Compound: COc1ccc(-c2cc(=O)c3c(O)cc(O)cc3o2)cc1 [acacetin]
Inhibition of CYP3A4 metabolic activity (CYP3A4): inhibition

Compound: O=c1cc(-c2ccc(O)cc2)oc2cc(O)cc(O)c12 [apigenin]
IC50 (CYP2A6 [1]; read-out: IC50, direct inhibition assay): 0.9 ± 0.07 µM | IC50 (CYP2A6 [1]; read-out: IC50, metabolism dependent inhibition assay): 0.77 ± 0.16 µM | Inhibition of CYP2A6 enzyme activity (CYP2A6 [2]): inhibited | activity at 30 min, 1 µM (CYP2A6 [2]; direct inhibition (DI) assay): 48 ± 1% | activity at 30 min, 1 µM (CYP2A6 [2]; metabolism dependent inhibition (MDI) assay, coumarin 10 µM): 47 ± 7%

Inhibition of CYP2C8 paclitaxel 6-α-hydroxylation (CYP2C8): inhibition
Compound: COc1cc(OC)c2c(=O)cc(-c3ccccc3)oc2c1 [chrysin-dimethylether]
Inhibition of CYP3A4 metabolic activity (CYP3A4): inhibition | CYP2C8 enzyme activity in the TDI assay (CYP2C8): reduction of enzyme activity was not observed | Type of CYP2C8 inhibition (CYP2C8): mixed reversible and irreversible inhibitors

Inhibition of CYP2C8 paclitaxel 6-α-hydroxylation (CYP2C8): inhibition | Inhibition of CYP1A2 activity (CYP1A2 [4]; 1 µM flavonoid): inhibited | Residual CYP1A2 enzyme activity, time dependent inhibition (TDI) assay (CYP1A2 [4]; 1 µM flavonoid, preincubation without generating system): complete inhibition | Type of CYP1A2 inhibition (CYP1A2 [4]; [6]): reversible | activity at 15 min, 1 µM (CYP1A2 [4]): 18 ± 4% | activity at 15 min, 1 µM (CYP1A2 [4]; Residual CYP1A2 enzyme activity, direct inhibition (DI) assay, 1 µM flavonoid, no preincubation): 23 ± 6%
Compound: O=c1cc(-c2ccccc2)oc2cc(O)cc(O)c12 [chrysin]
Inhibition of CYP3A4 metabolic activity (CYP3A4): inhibition | Type of CYP1A2 inhibition, ethoxyresorufin O-deethylation (CYP1A2 [3]): reversible mix inhibition | CYP2C8 enzyme activity in the TDI assay (CYP2C8): reduction of enzyme activity was not observed | Type of CYP2C8 inhibition (CYP2C8): mixed reversible and irreversible inhibitors | Type of inhibition of ethoxy- and pentoxy-resorufin dealkylation (rat liver microsomes): mix type reversible | Type of CYP1A2 inhibition, N3-demethylation of caffeine (CYP1A2 [5]): reversible, competitive inhibition

Compound: O=c1cc(-c2ccccc2)oc2ccccc12 [flavone]
Inhibition of CYP3A4 metabolic activity (CYP3A4): inhibition

Inhibition of CYP2A6 enzyme activity (CYP2A6 [2]): inhibited | Inhibition of CYP2C8 paclitaxel 6-α-hydroxylation (CYP2C8): inhibition
Compound: O=c1c(O)c(-c2ccccc2)oc2cc(O)cc(O)c12 [galangin]
Inhibition of CYP3A4 metabolic activity (CYP3A4): inhibition | CYP2C8 enzyme activity in the TDI assay (CYP2C8): reduction of enzyme activity was not observed | Type of CYP2C8 inhibition (CYP2C8): mixed reversible and irreversible inhibitors

Compound: COc1ccc([C@@H]2CC(=O)c3c(O)cc(O)cc3O2)cc1O [hesperetin]
Inhibition of CYP3A4 metabolic activity (CYP3A4): inhibition

Inhibition of CYP1A2 activity (CYP1A2 [4]; 1 µM flavonoid): inhibited
Compound: O=c1c(O)c(-c2ccc(O)cc2O)oc2cc(O)cc(O)c12 [morin]
Inhibition of CYP3A4 metabolic activity (CYP3A4): inhibition | Inhibition constant relative to chrysin (rat liver microsomes; morin versus chrysin): 16 fold | Ki (rat liver microsomes; read-out: Inhibition constant, ethoxy- and pentoxy-resorufin dealkylation): 5 µM | Type of inhibition of ethoxy- and pentoxy-resorufin dealkylation (rat liver microsomes): mix type reversible

Compound: O=C1C[C@@H](c2ccccc2)Oc2cc(O)cc(O)c21 [pinocembrin]
Inhibition of CYP3A4 metabolic activity (CYP3A4): inhibition

Compound: COc1ccc(-c2oc3cc(O)cc(O)c3c(=O)c2O)cc1O [tamarixetin]
Inhibition of CYP3A4 metabolic activity (CYP3A4): inhibition

Inhibition of CYP2A6 enzyme activity (CYP2A6 [2]): inhibited | Type of CYP2A6 inhibition (CYP2A6 [2]; [6]): direct inhibitor
Compound: COc1ccc(-c2cc(=O)c3c(OC)c(OC)c(OC)c(OC)c3o2)cc1 [tangeretin]
Inhibition of CYP3A4 metabolic activity (CYP3A4): inhibition
